Several values for one entry are separate records, joined by “and”; a condition that tells them apart may be missing. Identical values can stand only once.
Legend:
PAT [1] = target: T1, PAT (Penicillium chrysogenum, UniProt P15802); assay: Microbiological test of 6-APA-PaCoA acyltransferase activity (acylation of 6-APA with PaCoA to Penicillin V), indicator strain Micrococcus luteus ATCC 9341/BC 85; format: biochemical, Penicillium chrysogenum P2/ATCC 48271; details: for 6-APA-PaCoA Transacylierungsaktivität (mm HH Ø): Stabilisierung, 5% Sorbit / 1 mM PMSF / 1% BSA / 10% Glycerin / 5% Mannit / 100 µg 6-APA/ml
T1 sequence (P15802 103-357 limits assumed): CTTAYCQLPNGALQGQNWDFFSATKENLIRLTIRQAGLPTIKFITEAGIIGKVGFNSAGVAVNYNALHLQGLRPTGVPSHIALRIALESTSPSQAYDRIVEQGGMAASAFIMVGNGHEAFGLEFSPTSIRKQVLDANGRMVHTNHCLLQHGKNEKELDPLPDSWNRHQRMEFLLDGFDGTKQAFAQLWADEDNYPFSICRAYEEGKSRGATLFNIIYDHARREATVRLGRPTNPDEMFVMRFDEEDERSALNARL
T1 sequence (P15802 1-102 limits assumed): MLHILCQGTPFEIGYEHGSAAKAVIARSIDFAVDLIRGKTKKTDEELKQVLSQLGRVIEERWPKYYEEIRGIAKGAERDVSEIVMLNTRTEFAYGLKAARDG

PAT [2] = target: T1, PAT; assay: Substrate specificity of purified PAT (fraction AL 278/2), specific enzyme activity by HPLC; format: biochemical, Penicillium chrysogenum P2/ATCC 48271; details: labelled substance = Acylakzeptor

Row | Structure (SMILES) | Als Vergleich Transacylierung 6-APA + PaCoA → Penicillin V (PAT [1]) | mittels HPLC bestimmte spezifische Enzymaktivität (mU/mg Protein) A1 278/2 (PAT [2]; Acyldonator PaCoA) [mU/mg Protein] | mittels HPLC bestimmte spezifische Enzymaktivität (mU/mg Protein) A1 278/2 (PAT [2]; Acyldonator PeCoA) [mU/mg Protein] | 6-APA-PaCoA Transacylierungsaktivität (mm HH Ø) (PAT [1]; 24 h bei +4°C, reaction 30', control ohne Zusatz Spur) [mm] | 6-APA-PaCoA Transacylierungsaktivität (mm HH Ø) (PAT [1]; 24 h bei +4°C, reaction sofort, control ohne Zusatz 0) [mm] | 6-APA-PaCoA Transacylierungsaktivität (mm HH Ø) (PAT [1]; 24 h bei -20°C, reaction 30', control ohne Zusatz 38) [mm] | 6-APA-PaCoA Transacylierungsaktivität (mm HH Ø) (PAT [1]; 24 h bei -20°C, reaction sofort, control ohne Zusatz 15.2) [mm] | 6-APA-PaCoA Transacylierungsaktivität (mm HH Ø) (PAT [1]; Testung sofort, reaction 30', control ohne Zusatz 33.4) [mm] | 6-APA-PaCoA Transacylierungsaktivität (mm HH Ø) (PAT [1]; Testung sofort, reaction sofort, control ohne Zusatz 21.5) [mm]
1 | CC1(C)S[C@@H]2[C@H](N)C(=O)N2[C@H]1C(=O)O [6-APA, 6-Aminopenicillansäure] | 17.0 mm and 23.2 mm and 26.9 mm and 25.9 mm | 393 | 329 |  |  |  |  |  | 
2 | OCC(O)CO [Glycerin] |  |  |  | 11.5 | 0 | 38 | 15.2 | 33.1 | 22.0
